Assays:
[1] = test system: plasma ANF; assay: Effect on rat plasma ANF concentration during continuous ANF infusion (radioimmunoassay); format: in vivo, Male Sprague-Dawley rats; conditions: about 10 mg/kg p.o., in 10% ethanol/polyethylene glycol 400; conscious rats infused with ANF 450 ng/kg/min i.v.
Description: The effect of the compounds of the invention on rat plasma ANF concentration can be determined as follows:
Male Sprague-Dawley rats (275-390 g) are anesthetized with ketamine (150 mg/kg)/acepromazine (10%) and instrumented with catheters in the femoral artery and vein to obtain blood samples and infuse ANF, respectively. The rats are tethered with a swivel system and are allowed to recover for 24 hours before being studied in the conscious, unrestrained state.
In this assay, plasma ANF levels are determined in the presence and absence of NEP inhibition. On the day of study, all rats are infused continuously with ANF at 450 ng/kg/min. i.v. for the entire 5 hours of the experiment. Sixty minutes after beginning the infusion, blood samples for baseline ANF measurements are obtained (time 0) and the rats are then randomly divided into groups treated with the test compound or vehicle. Additional blood samples are taken 30, 60, 120, 180 and 240 minutes after administration of the test compound.
Plasma concentrations are determined by a specific radioimmunoassay. […] The supernatant is decanted and the pellets counted in a gamma counter. […] Plasma ANF levels are expressed as a percent of those measured in vehicle-treated animals which received ANF alone (450 ng/kg/min i.v.).

[2] = test system: DOCA-salt hypertensive rats; assay: Antihypertensive effect in DOCA-salt hypertensive rats; format: in vivo; conditions: 10 mg/Kg p.o., in PEG 400; DOCA-salt hypertensive rat model
Description: The antihypertensive effect can be determined in desoxycorticosterone acetate (DOCA)-salt hypertensive rats.
DOCA-salt hypertensive rats (280-380 g) are prepared by the standard method. Rats underwent a unilateral nephrectomy and one week later are implanted with silastic pellets containing 100 mg/kg of DOCA. The rats are maintained on 1% NaCl/0.2% KCI drinking water for three to five weeks until sustained hypertension is established. The antihypertensive activity is evaluated at this time.
Two days before an experiment, the rats are anesthetized with methoxyflurane and instrumented with catheters in the femoral artery to measure arterial blood pressure. Forty-eight hours later, baseline arterial pressure and heart rate are recorded during a 1 hour period. The test compound or vehicle is then administered and the same cardiovascular parameters are monitored for an additional 5 hours.

SMILES: O=P(CN[C@@H](Cc1ccc(-c2ccccc2)cc1)c1nnn[nH]1)(Oc1ccccc1)Oc1ccccc1 [Example 3, (S)-[2-Biphenyl-4-yl-1-(1H-tetrazol-5-yl)-ethylamino]-methylphosphonic acid diphenyl ester]
- plasma ANF levels [1]: significant increases
- blood pressure [2]: significant reduction

Reference: EP0660840B1 (priority 1992, dated 1994)
